Test results as given in patent US11078214B2, “Monocyclic thieno, pyrido, and pyrrolo pyrimidine compounds and methods of use and manufacture of same” (Duquesne University of the Holy Spirit, priority 2015, dated 2021).
Like-named read-outs stand apart in the source and are kept apart here.

Key:
D4 CHO cells (FRβ) = test: Growth inhibition of CHO subline D4 expressing FRβ; format: cell-based, Chinese hamster
[1] = tested on: KB human tumor cells (RFC/FRα/PCFT); test: Growth inhibition of KB human tumor cells; format: cell-based
Source text: The experiments with the CHO sublines were extended to KB human nasopharyngeal carcinoma cells which express highly elevated FRα, along with RFC and PCFT.

[2] = tested on: PC43-10 CHO cells (human RFC); test: Growth inhibition of CHO subline PC43-10 expressing human RFC; format: cell-based, Chinese hamster
RT16 CHO cells (FRα) = test: Growth inhibition of CHO subline RT16 expressing human FRα; format: cell-based, Chinese hamster
HeLa = test: Antiproliferative SRB assay, parental HeLa; format: cell-based, human
Source text: (§1) A second clinically relevant mechanism of drug resistance to these microtubule agents is the expression of βIII isotype of tubulin. […] The WT βIII cell line was generated from HeLa cells transfected with the gene for/III-tubulin.

[3] = tested on: tubulin (colchicine site); test: Inhibition of [3H]colchicine binding to tubulin; conditions: 1 μM inhibitor
A-10 cells = test: Cellular microtubule depolymerization (loss of cellular microtubules) in A-10 cells; format: cell-based
purified tubulin = test: Inhibition of the assembly of purified tubulin; format: biochemical; conditions: Section V Table 3; read-out: Inhibition of tubulin assembly IC50 (μM) ± SD
SK-OV-3 = test: Antiproliferative SRB assay, parental SK-OV-3; format: cell-based, human
cellular microtubules = test: Cellular microtubule depolymerization (Section V); format: cell-based; conditions: Section V Table 2; bare values under μM head, EC50/IC50 ratio implies nM
MDA-MB-435 cancer cells = test: Antiproliferative sulforhodamine B (SRB) assay in MDA-MB-435 cells; format: cell-based, human
SK-OV-3 MDR-1-6/6 = test: cells; format: cell-based, human
recombinant pjDHFR [4] = biological target: T1, recombinant pjDHFR (Pneumocystis jirovecii (Human pneumocystis pneumonia agent), UniProt Q9UUP5); conditions: Section I Table 3
recombinant pjDHFR [5] = biological target: T1, recombinant pjDHFR; conditions: Section I Table 1; cited from earlier work
hDHFR = hDHFR (Homo sapiens (Human), UniProt P00374); test: Inhibition of recombinant hDHFR; format: biochemical; conditions: Section I Table 3; 37° C., 18 μM dihydrofolic acid; title says μM, head nM; read-out: Human DHFR
[6] = tested on: R2 CHO cells (transporter-null); test: Growth inhibition of transporter-null R2 CHO cells; format: cell-based, Chinese hamster; conditions: Cricetulus griseus
[7] = tested on: R2/PCFT4 CHO cells (PCFT); test: Growth inhibition of CHO subline R2/PCFT4 expressing human PCFT; format: cell-based, Chinese hamster; conditions: Cricetulus griseus
WT βIII cell line = test: Antiproliferative SRB assay, WT βIII (HeLa transfected with βIII-tubulin); format: cell-based; conditions: Homo sapiens
Source text: as §1

[8] = Rattus norvegicus, A10, Section II Table 1, 50% loss of cellular microtubules, read-out: Microtubule depolymerization (A-10 cells) EC50 ± SD
[9] = Cricetulus griseus, CHO, Section III Table 1, read-out: D4 (nM) FRβ IC50
[10] = Cricetulus griseus, CHO, Section VI Table 1, read-out: FRβ (nM) D4 IC50
[11] = Section III Table 1, read-out: R2 (nM) Null IC50
[12] = Section VI Table 1, read-out: R2 IC50
[13] = Homo sapiens, Section III Table 1, read-out: KB (nM) RFC/FRα/PCFT IC50
[14] = Homo sapiens, Section VI Table 1, read-out: FRα/PCFT/RFC (nM) KB IC50
[15] = Homo sapiens, PC43-10, Section III Table 1, read-out: PC43-10 (nM) RFC IC50
[16] = Homo sapiens, PC43-10, Section VI Table 1, read-out: RFC (nM) PC43-10 IC50
[17] = R2/PCFT4, Section VI Table 1, read-out: PCFT (nM) R2/PCFT4 IC50
[18] = Section III Table 1, R2/PCFT4, read-out: PCFT4 (nM) PCFT IC50
[19] = Cricetulus griseus, RT16, Section III Table 1, read-out: RT16 (nM) FRα IC50
[20] = Cricetulus griseus, RT16, Section VI Table 1, read-out: FRα (nM) R16 IC50

Sequence of hDHFR (P00374 whole entry): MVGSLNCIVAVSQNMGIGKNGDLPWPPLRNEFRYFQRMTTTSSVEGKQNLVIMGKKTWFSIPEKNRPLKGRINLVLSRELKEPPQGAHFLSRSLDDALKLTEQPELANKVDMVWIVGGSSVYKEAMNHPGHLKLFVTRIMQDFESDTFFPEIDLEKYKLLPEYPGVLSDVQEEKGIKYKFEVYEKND

For `Nc1nc2[nH]c(CCCc3ccc(C(=O)N[C@@H](CCC(=O)O)C(=O)O)cc3)cc2c(=O)[nH]1` [AGF17, reference compound], the IC50 (D4 CHO cells (FRβ); Section IV Table 1, +FA, read-out: FRβ D4 (+FA) IC50) was > 1000 nM, the IC50 (D4 CHO cells (FRβ); Section IV Table 1, read-out: FRβ D4 IC50) was 2.7 nM and the IC50 ([1]; Section IV Table 1, +FA, read-out: KB (+FA) IC50) was > 1000 nM. The IC50 ([1]; Section IV Table 1, read-out: RFC/FRα/PCFT KB IC50) was 1.8 nM, the IC50 ([2]; Section IV Table 1, spread in parentheses, read-out: RFC PC43-10 IC50) was 648 nM and the IC50 (RT16 CHO cells (FRα); Section IV Table 1, +FA, read-out: FRα RT16 (+FA) IC50) was > 1000 nM. For the same molecule, the IC50 (RT16 CHO cells (FRα); Section IV Table 1, read-out: FRα RT16 IC50) was 3.2 nM.

In the case of `COc1ccc(/C=C\c2cc(OC)c(OC)c(OC)c2)cc1O` [CA4, Combretastatin A-4, reference compound], the IC50 (HeLa; parental HeLa, read-out: HeLa IC50 ± SD) is reported as 4.7 ± 0.2 nM, the “Inhibition of colchicine binding % Inhibition ± SD” value [3] is reported as 85 ± 3% and the EC50 (A-10 cells; Section II Table 1, nM, read-out: Microtubule depolymerization (A-10 cells) EC50) is reported as 13 nM. The EC50 (A-10 cells; Section VIII Table 1, read-out: EC50 (nM) in A-10 cells (Loss of cellular microtubules)) was 13 nM, the IC50 (purified tubulin) was […] and the IC50 (SK-OV-3; parental cell line, SRB, n = 3, read-out: SK-OV-3 IC50 ± SD) was […]. For the same molecule, the EC50 (cellular microtubules) was 9.8 µM, the IC50 (MDA-MB-435 cancer cells; Section II Table 1, SRB assay, read-out: MDA-MB-435 IC50 ± SD) was 3.4 ± 0.6 nM and the IC50 (MDA-MB-435 cancer cells; Section V Table 2, read-out: IC50 MDA-MB-435) was 4.4 ± 0.46 nM. The IC50 (MDA-MB-435 cancer cells; Section VIII Table 1, read-out: IC50 ± SD (MDA-MB-435) nM cancer cells) was 3.4 ± 0.6 nM and the IC50 (SK-OV-3 MDR-1-6/6; Pgp overexpressing cell line, SRB, n = 3, read-out: SK-OV-3 MDR-1-6/6 IC50 ± SD) was 6.6 ± 1.3 nM.

In the case of `Cc1nc(N)nc2ccc(Nc3cc(F)c(F)c(F)c3)nc12` [Compound A], the Hu/Pj selectivity ratio (recombinant pjDHFR [4]) is listed as 3.5, the IC50 (recombinant pjDHFR [4]; read-out: DHFR Pj, 37° C., 18 μM dihydrofolic acid, title says μM, head nM) is listed as 0.87 µM and the “Hu/Pj selectivity ratio (hDHFR/pjDHFR)” value (recombinant pjDHFR [5]) is listed as 3.5. For the same molecule, the IC50 (hDHFR) was 3.1 µM.

For `COc1cc(NCc2ccc3nc(N)nc(N)c3c2C)cc(OC)c1OC` [TMQ, trimetrexate], the “Hu/Pj selectivity ratio (hDHFR/pjDHFR)” value (recombinant pjDHFR [5]) is given as 0.1.

In the case of `COc1ccc(N(C)c2nc(C)nc3cc[nH]c23)cc1` [compound 1], the IC50 (HeLa; Homo sapiens, parental HeLa, read-out: HeLa IC50 ± SD) is reported as 270 ± 26 nM, the EC50 (A-10 cells; [8]) is reported as 5800 nM and the EC50 (A-10 cells; Rattus norvegicus, A10, Section VIII Table 1, read-out: EC50 (nM) in A-10 cells (Loss of cellular microtubules)) is reported as 5800 nM. For the same molecule, the IC50 (D4 CHO cells (FRβ); [9]) was 10 nM, the IC50 (D4 CHO cells (FRβ); [10]) was 0.2 nM and the IC50 [6, 11] was > 1000 nM. For the same molecule, the IC50 [6, 12] was 289 nM, the IC50 (SK-OV-3; Homo sapiens, SK-OV-3, parental cell line, SRB, n = 3, read-out: SK-OV-3 IC50 ± SD) was 278 ± 19 nM and the IC50 [1, 13] was 1.9 nM. For the same molecule, the IC50 [1, 14] was 0.2 nM, the IC50 [2, 15] was > 1000 nM and the IC50 [2, 16] was 101 nM. For the same molecule, the IC50 [7, 17] was 3.64 nM, the IC50 [7, 18] was 213 nM and the IC50 (WT βIII cell line; HeLa transfected with βIII-tubulin, read-out: WT βIII IC50 ± SD) was 186 ± 21 nM. For the same molecule, the IC50 (RT16 CHO cells (FRα); [19]) was 6.3 nM and the IC50 (RT16 CHO cells (FRα); [20]) was 0.19 nM.

Work on `COc1ccc(N(C)c2nc(C)nc3ccsc23)cc1` [compound 2] yielded an IC50 (HeLa; Homo sapiens, HeLa, read-out: HeLa IC50 ± SD (nM)) of 186 ± 19 nM, an EC50 (A-10 cells; Rattus norvegicus, A10, read-out: Microtubule depolymerization (A-10 cells) EC50 ± SD (μM)) of 8100 nM and an IC50 (D4 CHO cells (FRβ); Cricetulus griseus, CHO, read-out: D4 (nM) FRβ IC50) of 0.52 nM. For the same molecule, the IC50 (D4 CHO cells (FRβ); Cricetulus griseus, CHO, read-out: FRβ (nM) D4 IC50) was 2.36 nM, the IC50 ([6]; read-out: R2 (nM) Null IC50) was > 1000 nM and the IC50 ([6]; read-out: R2 IC50) was > 1000 nM. The IC50 (SK-OV-3; Homo sapiens, SK-OV-3, read-out: SK-OV-3 IC50 ± SD (nM)) was 253 ± 23 nM, the IC50 ([1]; Homo sapiens, read-out: FRα/PCFT/RFC (nM) KB IC50) was 1.13 nM and the IC50 ([1]; Homo sapiens, read-out: KB (nM) RFC/FRα/PCFT IC50) was 0.34 nM. The IC50 ([2]; Homo sapiens, PC43-10, read-out: PC43-10 (nM) RFC IC50) was > 1000 nM, the IC50 ([2]; Homo sapiens, PC43-10, read-out: RFC (nM) PC43-10 IC50) was > 1000 nM and the IC50 (MDA-MB-435 cancer cells; Homo sapiens, MDA-MB-435, read-out: MDA-MB-435 IC50 ± SD (nM)) was 198 ± 23 nM. It also gave an IC50 ([7]; R2/PCFT4, read-out: PCFT4 (nM) PCFT IC50) of 57.6 nM, an IC50 ([7]; R2/PCFT4, read-out: PCFT (nM) R2/PCFT4 IC50) of 40 nM and an IC50 (WT βIII cell line; HeLa, read-out: WT βIII IC50 ± SD (nM)) of 152 ± 14 nM. For the same molecule, the IC50 (RT16 CHO cells (FRα); Cricetulus griseus, RT16, read-out: FRα (nM) R16 IC50) was 1.72 nM, the IC50 (RT16 CHO cells (FRα); Cricetulus griseus, RT16, read-out: RT16 (nM) FRα IC50) was 1.27 nM and the IC50 (SK-OV-3 MDR-1-6/6; Homo sapiens, SK-OV-3, read-out: SK-OV-3 MDR-1-6/6 IC50 ± SD (nM)) was 438 ± 58 nM.

In the case of `CSc1ccc(Nc2nc(C)nc3ccsc23)cc1` [compound 3], the EC50 (A-10 cells; [8]) is reported as > 10000 nM, the IC50 (D4 CHO cells (FRβ); [9]) is reported as 0.43 nM and the IC50 (D4 CHO cells (FRβ); [10]) is reported as > 1000 nM. The IC50 [6, 11] was > 1000 nM, the IC50 [6, 12] was > 1000 nM and the IC50 [1, 13] was 0.48 nM. For the same molecule, the IC50 [1, 14] was 674 nM, the IC50 [2, 15] was > 1000 nM and the IC50 [2, 16] was > 1000 nM. For the same molecule, the IC50 [7, 17] was > 1000 nM, the IC50 [7, 18] was 41.5 nM and the IC50 (RT16 CHO cells (FRα); [19]) was 2.54 nM. For the same molecule, the IC50 (RT16 CHO cells (FRα); [20]) was > 1000 nM.
